# What was measured:
# [1] = test system: Phaeosphaeria nodorum (Synonym: Septoria nodorum); assay: Test on the preventive effect against wheat glume blotch; assay type: in vivo; conditions: Parastagonospora nodorum, 144 h; test solution A 500 ppm, 5 ml per pot, wheat 1.3-leaf stage, 2 days inoculation chamber then 6 days at 20° C.
# Procedure: (§1) Compounds of the present invention were dissolved in a solvent for emulsion (a mixture of Sorpol (registered trademark) 3005XL (manufactured by Toho Chemical Industry Co., Ltd.): N-methylpyrrolidone: Solvesso (registered trademark) 200 (manufactured by ExxonMobil Chemical) in a ratio of 1:5:2) to prepare 20 wt % emulsifiable concentrates. Then, distilled water was added to dilute the emulsifiable concentrates to the prescribed concentration (500 ppm), and the obtained solutions were used in the following the Test Examples 1 to 8. Wheat (varieties: Haruyutaka) was seeded in 90 cm^3 plastic pot, and at 1.3-leaf stage, 5 ml per pot of test solution A of the compounds of the present invention was applied. One day after treatment, a suspension of conidium of Phaeosphaeria nodorum (Synonym: Septoria nodorum) was sprayed to the wheat, and the pot was left in the inoculation chamber at 20° C. under humidity of 100% RH for 2 days. Then, the pot was placed in an air-conditioned greenhouse (20° C.) for 6 days. The proportion of the formed lesion in the inoculated leaves were measured to calculate the control value in accordance with the same formula as in the Test Example 1. The test was carried out in duplicate.
# [2] = test system: Erysiphe polygoni (synonym: Erysiphe betae); assay: Test on the preventive effect against cucumber powdery mildew; assay type: in vivo; conditions: 216 h, test solution A 500 ppm, 5 ml per pot sprayed, cucumber cotyledon stage, 9 days after inoculation
# Procedure: Compounds of the present invention were dissolved in a solvent for emulsion (a mixture of Sorpol (registered trademark) 3005XL (manufactured by Toho Chemical Industry Co., Ltd.): N-methylpyrrolidone: Solvesso (registered trademark) 200 (manufactured by ExxonMobil Chemical) in a ratio of 1:5:2) to prepare 20 wt % emulsifiable concentrates. Then, distilled water was added to dilute the emulsifiable concentrates to the prescribed concentration (500 ppm), and the obtained solutions were used in the following the Test Examples 1 to 8. Cucumber (varieties: Sagami Hanjiro) was seeded in 90 cm^3 plastic pot, and at the cotyledon stage, 5 ml per pot of test solution A of the compounds of the present invention was sprayed. After drying in air, the pot was placed in an air-conditioned greenhouse (20° C.), and a suspension of conidium of Erysiphe polygoni (synonym: Erysiphe betae) was sprayed. After the pot were replaced at the same temperature for 9 days, the proportion of the formed lesion in the inoculated leaves were counted to calculate the control value in accordance with the following formula. The test was carried out in duplicate. Control value=[1−(lesion area ratio in treated plot/lesion are a ratio in non-treated plot)]×100
# Botrytis cinerea [3] = assay: Test on the preventive effect against cucumber gray mold (spore inoculation); assay type: in vivo; conditions: 72 h, test solution A 500 ppm, 5 ml per pot, cucumber cut leaves, conidium inoculation, 3 days at 20° C.
# Procedure: Compounds of the present invention were dissolved in a solvent for emulsion (a mixture of Sorpol (registered trademark) 3005XL (manufactured by Toho Chemical Industry Co., Ltd.): N-methylpyrrolidone: Solvesso (registered trademark) 200 (manufactured by ExxonMobil Chemical) in a ratio of 1:5:2) to prepare 20 wt % emulsifiable concentrates. Then, distilled water was added to dilute the emulsifiable concentrates to the prescribed concentration (500 ppm), and the obtained solutions were used in the following the Test Examples 1 to 8. Cucumber (varieties: Sagami Hanjiro) was seeded in 90 cm^3 plastic pot, and at the cotyledon stage, 5 ml per pot of test solution A of the compounds of the present invention was applied. After drying in air, the treated leaves were cut and transferred in plastic containers. 30 μl of a mixture of a suspension of conidium of Botrytis cinerea and a dissolved PDA medium in a ratio of 1:1 was dropped on each treated leaf and inoculated. After the inoculation, the plastic containers were placed in 20° C. with humid conditions for 3 days, and the proportion of the formed lesion in the inoculated leaves were counted to calculate the control value in accordance with the same formula as in the Test Example 1. The test was carried out in duplicate.
# [4] = test system: Colletotrichum lagenarium (Synonym: Colletotrichum orbiculare); assay: Test on the preventive effect against cucumber anthracnose; assay type: in vivo; conditions: 168 h, test solution A 500 ppm, 5 ml per pot sprayed, 2 days inoculation chamber then 7 days at 23° C.
# Procedure: Compounds of the present invention were dissolved in a solvent for emulsion (a mixture of Sorpol (registered trademark) 3005XL (manufactured by Toho Chemical Industry Co., Ltd.): N-methylpyrrolidone: Solvesso (registered trademark) 200 (manufactured by ExxonMobil Chemical) in a ratio of 1:5:2) to prepare 20 wt % emulsifiable concentrates. Then, distilled water was added to dilute the emulsifiable concentrates to the prescribed concentration (500 ppm), and the obtained solutions were used in the following the Test Examples 1 to 8. Cucumber (varieties: Sagami Hanjiro) was seeded in 90 cm^3 plastic pot, and at the cotyledon stage, 5 ml per pot of test solution A of the compounds of the present invention was sprayed. One day later, a suspension of conidium of Colletotrichum lagenarium (Synonym: Colletotrichum orbiculare) was sprayed, and the pot was left for 2 days in the inoculation chamber at 25° C. under humidity of 100% RH. Thereafter, the pot was placed in an air-conditioned greenhouse (23° C.) and left at the same temperature for 7 days. Thereafter, the proportion of the formed lesion in the inoculated leaves were measured to calculate the control value in accordance with the same formula as in Test Example 1. The test was carried out in duplicate.
# [5] = test system: Blumeria graminis f. sp. tritici; assay: Test on the preventive effect against wheat powdery mildew; assay type: in vivo; conditions: 168 h, test solution A 500 ppm, 5 ml per pot, wheat 1.3-leaf stage, 7 days after inoculation
# Procedure: Compounds of the present invention were dissolved in a solvent for emulsion (a mixture of Sorpol (registered trademark) 3005XL (manufactured by Toho Chemical Industry Co., Ltd.): N-methylpyrrolidone: Solvesso (registered trademark) 200 (manufactured by ExxonMobil Chemical) in a ratio of 1:5:2) to prepare 20 wt % emulsifiable concentrates. Then, distilled water was added to dilute the emulsifiable concentrates to the prescribed concentration (500 ppm), and the obtained solutions were used in the following the Test Examples 1 to 8. Wheat (varieties: Norin 61) was seeded in 90 cm^3 plastic pot, and at the 1.3-leaf stage, 5 ml per pot of test solution A of the compounds of the present invention were applied. One day after treatment, the pot was placed in an air-conditioned greenhouse (20° C.), and conidium of Blumeria graminis f. sp. tritici was inoculated to the wheat. 7 days after, the proportion of the formed lesion in the inoculated leaves were measured to calculate the control value in accordance with the same formula as in the Test Example 1. The test was carried out in duplicate.
# [6] = test system: Colletotrichum lagenarium (Synonym: Colletotrichum orbiculare); assay: Test on the preventive effect against cucumber anthracnose; assay type: in vivo; conditions: 168 h, 100 ppm solution (symbol *), 5 ml per pot sprayed, 2 days inoculation chamber then 7 days at 23° C.
# Botrytis cinerea [7] = assay: Test on the preventive effect against cucumber gray mold (mycelium inoculation); assay type: in vivo; conditions: 48 h, test solution A 500 ppm, 5 ml per pot, cucumber cotyledon, agar block inoculation, 2 days at 20° C.
# Procedure: Compounds of the present invention were dissolved in a solvent for emulsion (a mixture of Sorpol (registered trademark) 3005XL (manufactured by Toho Chemical Industry Co., Ltd.): N-methylpyrrolidone: Solvesso (registered trademark) 200 (manufactured by ExxonMobil Chemical) in a ratio of 1:5:2) to prepare 20 wt % emulsifiable concentrates. Then, distilled water was added to dilute the emulsifiable concentrates to the prescribed concentration (500 ppm), and the obtained solutions were used in the following the Test Examples 1 to 8. Cucumber (varieties: Sagami Hanjiro) was seeded in 90 cm^3 plastic pot, and at the cotyledon stage, 5 ml per pot of test solution A of the compounds of the present invention was applied. On the next day, the pot was transferred in a plastic container, and an agar blocks (diameter: 5 mm) containing Botrytis cinerea which was preliminarily cultivated in a PDA medium was inoculated on the cotyledon of the cucumber treated with the solution. After the inoculation, the plastic container was covered with a plastic sheet, then placed at 20° C. and humidified for 2 days. Thus the proportion of the formed lesion in the inoculated leaves were measured to calculate the control value in accordance with the same formula as in the Test Example 1. The test was carried out in duplicate.
# Sclerotinia sclerotiorum = assay: Test on the preventive effect against cucumber stem rot; assay type: in vivo; conditions: 48 h, test solution A 500 ppm, 5 ml per pot, agar block inoculation, 2 days at 20° C.
# Procedure: Compounds of the present invention were dissolved in a solvent for emulsion (a mixture of Sorpol (registered trademark) 3005XL (manufactured by Toho Chemical Industry Co., Ltd.): N-methylpyrrolidone: Solvesso (registered trademark) 200 (manufactured by ExxonMobil Chemical) in a ratio of 1:5:2) to prepare 20 wt % emulsifiable concentrates. Then, distilled water was added to dilute the emulsifiable concentrates to the prescribed concentration (500 ppm), and the obtained solutions were used in the following the Test Examples 1 to 8. Cucumber (varieties: Sagami Hanjiro) was seeded in 90 cm^3 plastic pot, and at the cotyledon stage, 5 ml per pot of test solution A of the compounds of the present invention was applied. After drying in air, the pot was transferred in a plastic container, and an agar blocks (diameter: 5 mm) containing Sclerotinia sclerotiorum which was preliminarily cultivated in a PDA medium was inoculated to the seed leaves of the cucumber treated with the solution. After the inoculation, the plastic container was covered with a plastic sheet, and placed at 20° C. and humidified for 2 days, thus the proportion of the formed lesion in the inoculated leaves were measured to calculate the control value in accordance with the same formula as in the Test Example 1. The test was carried out in duplicate.
# Puccinia recondita = assay: Test on the preventive effect against wheat leaf rust; assay type: in vivo; conditions: 216 h, test solution A 500 ppm, 5 ml per pot, wheat 1.3-leaf stage, 1 day inoculation chamber then 8 days at 20° C.
# Procedure: as §1, with “Norin 61)” for “Haruyutaka)”, “spores” for “conidium”, “Puccinia recondita” for “Phaeosphaeria nodorum (Synonym: Septoria nodorum)”, “1 day. Thereafter,” for “2 days. Then,”, “8” for “6”, “counted” for “measured”
# Asperaillus niger = assay: Test on the antifungal activity against Asperaillus niger; assay type: cell-based; conditions: 48 h; test solution B 100 ppm, 10 μl per well, 96 well plate, 25° C. dark, 2 days after treatment; read-out: efficacy (flora area ratio relative to non-treated well)
# Procedure: Compounds of the present invention were dissolved in dimethyl sulfoxide to prepare 1 wt % solutions. Then, distilled water was added to dilute the solutions to the prescribed concentration (100 ppm), and the obtained solutions were used in the following the Test Examples 9 to 12. 60 μl of a potato dextrose 1% agar medium was added to each well of a 96 well plate, and 30 μl of sterilized water containing spores of Asperaillus niger (10 spores/3 μl) was added to each well. Further, 10 μl per well of test solution B of the compounds of the present invention was added, and the plate was left at rest at 25° C. under dark conditions. 2 days after treatment, the flora area ratio (%) was determined to calculate the efficacy (%) relative to the non-treated well in accordance with the following formula. Efficacy (%)=[1−(flora area ratio in treated plot/flora area ratio in non-treated well)]×100
melting point [°C],SMILES,pest or weed control at 500 µg/mL [1] [%],pest or weed control at 500 µg/mL (Botrytis cinerea [3]) [%],other results
42 to 44,"N#CC(C#N)(CNC(=O)c1ccccc1C(F)(F)F)c1ncc(C#CC2CC2)cc1Cl [1-023, N-[2-[3-chloro-5-(cyclopropylethynyl)pyridin-2-yl]-2,2-dicyanoethyl]-2-(trifluoromethyl)benzamide]",≥ 70,,
72 to 74,CC(NC(=O)c1cccnc1C(F)F)C(SCC(F)(F)F)c1ncc(C#CC2CC2)cc1Cl (stereo not shown) [3-033a],≥ 70,≥ 70,pest or weed control at 500 µg/mL [2]: ≥ 70%; pest or weed control at 500 µg/mL [4]: ≥ 70%
176 to 178,"Cn1cc(C(=O)NC2CC2c2ncc(C#CC3CC3)cc2Cl)c(C(F)F)n1 (stereo not shown) [8-033, N-[2-[3-chloro-5-(cyclopropylethynyl)pyridin-2-yl]cyclopropyl]-3-difluoromethyl-1-methyl-1H-pyrazole-4-carboxamide]",,≥ 70,pest or weed control at 500 µg/mL (Botrytis cinerea [7]): ≥ 70%; pest or weed control at 500 µg/mL (Sclerotinia sclerotiorum): ≥ 70%; pest or weed control at 500 µg/mL (Puccinia recondita): ≥ 70%; inhibition of growth at 100 µg/mL (Asperaillus niger): ≥ 50%

# Continued, compound first:
SMILES,melting point [°C],pest or weed control at 500 µg/mL [1] [%],pest or weed control at 500 µg/mL (Botrytis cinerea [3]) [%],other results
"CCOC(=O)C(CNC(=O)c1cn(C)nc1C(F)F)(C(=O)OCC)c1ncc(C#CC2CC2)cc1Cl [8-023, 2-[3-chloro-5-(cyclopropylethynyl)pyridin-2-yl]-2-[(3-difluoromethyl-1-methyl-1H-pyrazole-4-carboxamide)methyl]malonic acid diethyl ester]",87 to 88,≥ 70,≥ 70,pest or weed control at 500 µg/mL [2]: ≥ 70%; pest or weed control at 500 µg/mL [5]: ≥ 70%
CC(Cc1ncc(C#CCO)cc1Cl)NC(=O)c1cn(C)nc1C(F)F (stereo not shown) [8-025],,,,pest or weed control at 100 ppm [6]: ≥ 70%
COC(c1ncc(C#CC2CC2)cc1Cl)C(C)NC(=O)c1sc(C)nc1C(F)F (stereo not shown) [9-006b],,,,pest or weed control at 500 µg/mL (Puccinia recondita): ≥ 70%
"Cn1cc(C(=O)N(C(=O)OC(C)(C)C)C2CC2c2ncc(C#CC3CC3)cc2Cl)c(C(F)F)n1 (stereo not shown) [12-002, tert-butyl N-[2-[3-chloro-5-(cyclopropylethynyl)pyridin-2-yl]cyclopropyl]-N-[3-difluoromethyl-1-methyl-1H-pyrazole-4-carbonyl]carbamate]",110 to 112,,≥ 70,
